Source: patent US10870638B2, “Pyridazinone compound or its salt, and herbicide containing it” (ISHIHARA SANGYO KAISHA, LTD., priority 2016, dated 2020)

Key:
Assay in all cases: Test Example 1: foliar treatment, growth inhibition rate on 14th day
Assay type in all cases: in vivo
Conditions in all cases: active ingredient amount 31 g/ha, 14th day after application
[1] = tested on: barnyardgrass (Echinochloa crus-qalli L.)
Excerpt: (§1) Upland field soil was put into a 1/300,000 hectare pot, and seeds of various plants were sown. When the respective plants reached predetermined leaf stage ((1) barnyardgrass (Echinochloa crus-[…].): 0.5 to 2.9 leaf stage, (2) crabgrass (Digitaria sanquinalis L.): 0.5 to 3.0 leaf stage, (3) green foxtail (Setaria viridis L.): 0.5 to 3.2 leaf stage, (4) wild oat (Avena fatua L.): 0.4 to 1.2 leaf stage, (5) italian ryegrass (Lolium multiflorum Lam.): 0.4 to 2.0 leaf stage, (6) redroot pigweed (Amaranthus retroflexus L.): cotyledon stage to 2.2 leaf stage, (7) rice (Oryza sativa L.): 0.2 to 2.7 leaf stage, (8) corn (Zea mays L.): 1.7 to 3.6 leaf stage, (9) wheat (Triticum aestivum L.): 1.3 to 2.3 leaf stage, (10) soybean (Glycine max Merr.); primary leaf stage), wettable powders or emulsifiable concentrates of the compounds of the present invention prepared in accordance with a conventional preparation method, were weighed so as to achieve the prescribed active ingredient amounts, and diluted with water in an amount corresponding to 1,000 liters per 1 hectare (containing 0.1 vol % of an agricultural spreader (surfactant WK manufactured by MARUWA BIOCHEMICAL Co., Ltd.)), and the spray solutions thus prepared were applied for foliar treatment by a small sprayer. On the 14th day after the application, the state of growth of the respective plants was visually observed, and the herbicidal effect was evaluated by a growth inhibition rate (%) of 0 (equivalent to the non-treated area) to 100 (complete kill).

[2] = tested on: corn (Zea mays L.)
Excerpt: as §1

[3] = tested on: crabgrass (Digitaria sanquinalis L.)
Excerpt: as §1

[4] = tested on: green foxtail (Setaria viridis L.)
Excerpt: as §1

[5] = tested on: italian ryegrass (Lolium multiflorum Lam.)
Excerpt: as §1

[6] = tested on: redroot pigweed (Amaranthus retroflexus L.)
Excerpt: as §1

[7] = tested on: rice (Oryza sativa L.)
Excerpt: as §1

[8] = tested on: soybean (Glycine max Merr.)
Excerpt: as §1

[9] = tested on: wheat (Triticum aestivum L.)
Excerpt: as §1

[10] = tested on: wild oat (Avena fatua L.)
Excerpt: as §1

[11] = visual, 0 = non-treated, 100 = complete kill

| Compound | Growth inhibition rate (%) Barnyardgrass [1] | Growth inhibition rate (%) Corn [2] | Growth inhibition rate (%) Crabgrass [3] | Growth inhibition rate (%) Green foxtail [4] | Growth inhibition rate (%) Italian ryegrass [5] | Growth inhibition rate (%) Redroot pigweed [6] | Growth inhibition rate (%) Rice [7] | Growth inhibition rate (%) Soybean [8] | Growth inhibition rate (%) Wheat [9] | Growth inhibition rate (%) Wild oat [10] | Growth inhibition rate (%) Barnyardgrass [1, 11] | Growth inhibition rate (%) Corn [2, 11] | Growth inhibition rate (%) Crabgrass [3, 11] | Growth inhibition rate (%) Green foxtail [4, 11] | Growth inhibition rate (%) Italian ryegrass [5, 11] | Growth inhibition rate (%) Redroot pigweed [6, 11] | Growth inhibition rate (%) Rice [7, 11] | Growth inhibition rate (%) Soybean [8, 11] | Growth inhibition rate (%) Wheat [9, 11] | Growth inhibition rate (%) Wild oat [10, 11] |
| --- | --- | --- | --- | --- | --- | --- | --- | --- | --- | --- | --- | --- | --- | --- | --- | --- | --- | --- | --- | --- |
| Cc1ccc(Oc2cnc3cc(Cl)ccc3n2)cc1-c1c(OC(=O)c2ccccc2)c(C)nn(C)c1=O [Compound 3-38] | 100% | 30% | 100% | 100% | 99% | 20% | 80% | 25% | 98% | 98% |  |  |  |  |  |  |  |  |  |  |
| Cc1ccc(Oc2cnc3cc(Cl)ccc3n2)cc1-c1c(OC(=O)N(C)C)c(C)nn(C)c1=O [Compound 3-65] |  |  |  |  |  |  |  |  |  |  | 100% | 40% | 83% | 99% | 85% | 0% | 0% | 10% | 98% | 75% |
| CCOC(=O)OC(C)Oc1c(C)nn(C)c(=O)c1-c1cc(Oc2ncc(C(F)(F)F)cc2Cl)ccc1C (stereo not drawn) [1-131] | 100% | 80% | 100% | 93% | 83% | 0% | 30% | 0% | 60% | 93% |  |  |  |  |  |  |  |  |  |  |
| Cc1ccc(Oc2cnc3cc(Cl)ccc3n2)cc1-c1c(OCOCCCl)c(C)nn(C)c1=O [Compound 3-81] |  |  |  |  |  |  |  |  |  |  | 99% | 0% | 93% | 99% | 95% | 0% | 0% | 0% | 25% | 95% |
| Cc1ccc(Nc2ncc(C(F)(F)F)cc2Cl)cc1-c1c(O)c(C)nn(C)c1=O [1-144] | 30% | 10% | 10% | 60% | 0% | 0% | 20% | 20% | 0% | 10% |  |  |  |  |  |  |  |  |  |  |
| COCCOCOc1c(C)nn(C)c(=O)c1-c1cc(Oc2cnc3cc(Cl)ccc3n2)ccc1C [Compound 3-75] |  |  |  |  |  |  |  |  |  |  | 99% | 10% | 95% | 99% | 98% | 0% | 0% | 0% | 95% | 98% |
| Cc1ccc(Oc2cnc3cc(Cl)ccc3n2)cc1-c1c(OC(=O)OC2CC(C)CCC2C(C)C)c(C)nn(C)c1=O (stereo not drawn) [Compound 3-61] |  |  |  |  |  |  |  |  |  |  | 0% | 20% | 20% | 60% | 0% | 0% | 0% | 0% | 0% | 0% |
| Cc1ccc(Oc2cnc3cc(Cl)ccc3n2)cc1-c1c(OC(C)OC(=O)OC2CCCCC2)c(C)nn(C)c1=O (stereo not drawn) [Compound 3-76] |  |  |  |  |  |  |  |  |  |  | 93% | 0% | 30% | 93% | 10% | 0% | 0% | 0% | 0% | 0% |
| COC(=O)OC(C)Oc1c(C)nn(C)c(=O)c1-c1cc(Oc2ncc(C(F)(F)F)cc2Cl)ccc1C (stereo not drawn) [1-130] | 100% | 95% | 99% | 99% | 93% | 0% | 30% | 0% | 80% | 98% |  |  |  |  |  |  |  |  |  |  |
| CC(=O)Oc1c(C(F)(F)F)nn(C)c(=O)c1-c1cc(Oc2ncc(C(F)(F)F)cc2Cl)ccc1C [1-142] | 90% | 50% | 88% | 40% | 20% | 20% | 15% | 40% | 20% | 85% |  |  |  |  |  |  |  |  |  |  |
| Cc1ccc(Oc2ncc(C#N)cc2Cl)cc1-c1c(O)c(C)nn(C)c1=O [Compound 2-2] | 70% | 10% | 70% | 75% | 10% | 20% | 0% | 0% | 0% | 10% |  |  |  |  |  |  |  |  |  |  |
| COC(=O)OC(C)Oc1c(C)nn(C)c(=O)c1-c1cc(Oc2cnc3cc(Cl)ccc3n2)ccc1C (stereo not drawn) [Compound 3-44] | 100% | 20% | 99% | 100% | 98% | 0% | 85% | 10% | 85% | 100% |  |  |  |  |  |  |  |  |  |  |
| C=CCOc1c(C)nn(C)c(=O)c1-c1cc(Oc2cnc3cc(Cl)ccc3n2)ccc1C [Compound 3-74] |  |  |  |  |  |  |  |  |  |  | 93% | 20% | 20% | 95% | 0% | 0% | 0% | 0% | 0% | 25% |
| Cc1ccc(Oc2cnc3cc(Cl)ccc3n2)cc1-c1c(OC(=S)Sc2ccccc2)c(C)nn(C)c1=O [Compound 3-63] |  |  |  |  |  |  |  |  |  |  | 100% | 40% | 98% | 100% | 90% | 0% | 0% | 0% | 83% | 98% |
| CCCCC(=O)Oc1c(C)nn(C)c(=O)c1-c1cc(Oc2ncc(C(F)(F)F)cc2Cl)ccc1C [1-135] | 100% | 98% | 99% | 100% | 100% | 0% | 90% | 0% | 100% | 100% |  |  |  |  |  |  |  |  |  |  |
| CC(=O)Oc1c(C)nn(C)c(=O)c1-c1cc(Oc2nc3ccc(Cl)cc3s2)ccc1C [Compound 2-132] | 90% | 0% | 50% | 80% | 78% |  | 40% | 30% | 70% | 90% |  |  |  |  |  |  |  |  |  |  |
